Data: patent publication US12509446B2, “FYN and VEGFR2 kinase inhibitors” (ROTTAPHARM BIOTECH S.R.L., priority 2019, dated 2025)

Tests used:
[1] = target: VEGFR2 (Homo sapiens (Human), UniProt P35968); experiment: In vitro VEGFR2 kinase activity assay (Eurofins Cerep); assay type: biochemical; conditions: read-out: VEGFR2 KINASE INHIBITION IC50
Method: The VEGFR2 kinase inhibitory activity of representative examples of compounds of Formula (I) assays was evaluated in Eurofins Cerep (France). The concentration range of the inhibitors under investigation was from 10^−8 M up to 10^−5 M final concentration. Some compounds were re-tested in a concentration-range starting from 10^−9 M. The results are expressed as a percent of control activity (in the absence of test compound) and the IC50 values were determined by non-linear regression analysis of the inhibition/concentration curves generated with mean replicate values.

[2] = test system: ADAMTS-5; experiment: Gene expression in rat articular chondrocytes under IL-1β stimulation, ADAMTS-5; assay type: cell-based; conditions: for ADAMTS-5 gene expression, percentage of inhibitory effect at the highest non toxic concentration: 6 h; for IC50: Rattus norvegicus, Chondrocyte, 6 h incubation
Method: (§1) For gene expression analysis, 10 days after plating, the medium was changed and substituted with DMEM GlutaMAX I 0.4% to synchronize the cells. The cells were then co-treated in DMEM GlutaMAX I 0.4% with different concentrations of the test compounds and […] at a final concentration of 2 ng/ml for 6 h and 24 h. The test compound concentrations used have been chosen on the basis of the toxicity data.
(§2) At the end of the incubation, the supernatant was discarded, the cell were washed with cold PBS1X and scraped with 200 μl of RNA lysis buffer 1X (Nucleic Acid Purification Lysis Solution, Applied Biosystems).
(§3) Total RNA was purified using ABI Prism™ 6100 Nucleic Acid PrepStation (Applied Biosystems) following manufacturer's instructions.
(§4) Total RNA was retrotranscribed using the High-Capacity cDNA Archive Kit (Applied Biosystems-Thermo Fisher Scientific) following manufacturer's instructions.
(§5) The specific probes and primers for RealTime PCR were from Applied Biosystems (Thermo Fisher Scientific) as Assays-on-Demand™, while the probe and primers for the endogenous control 18S was a PDAR (Pre-Developed TaqMan® Assay Reagents—Applied Biosystems-Thermo Fisher Scientific).
(§6) The assays were designed to amplify target cDNA without amplifying genomic DNA.
(§7) Gene expression analysis for IL-1β, IL-6 and ADAMTS-5 were performed at 6 h incubation, while the gene expression analysis for MMP3, MMP13 and COX2 were performed at 24 h incubation.
(§8) For each compound the maximal concentration tested was dependent on the toxicity results obtained on primary rat chondrocytes.
(§9) The data analysis, with the normalisation on the amplified values for the 18S was done following the specific instruction of Applied Biosystems for the relative quantification of gene expression.

[3] = test system: NF-kB; experiment: Gene reporter (GR) assay, NF-kB activation after TNFα in JB6 Cl 41-5a (P+) cells; assay type: cell-based, murine; conditions: Mus musculus, JB6 Cl 41-5a, TNFα 2 ng/ml, non toxic concentrations; read-out: Gene reporter (GR) inhibition IC50
Text: To determine if the compounds of the invention were active also in a cellular model, a gene reporter assay was established in a cell line (JB6 Cl 41-5a (P+)) know to activate Fyn kinase via an inflammatory stimuli (TNFα). GR assay measures the activation of the nuclear transcription factor NF-kB, situated down-stream the Fyn activation pathway. Products active in this analysis has to penetrate in the cell and inhibit the activation pathway of NF-kB.
The murine epithelial cell line JB6 Cl 41-5a (P+) (ATCC® Cat. #CRL-2010) was stably transfected with the pGL4.32[luc2P/NFkB-RE/Hygro] vector (Promega). Clonal selection was achieved by limiting with 80 μg/ml Hygromycin B. The clones were tested for their response to TNFα stimulus.
JB6(P+) NFkB-RE-luc2P transfected cells were used for the analysis of NF-kB activity modulation, after TNFα stimulation, by Fyn-inhibitors.
Cells were pre-treated with the different compounds for 1 h and then stimulated with 2 ng/ml TNFα for 4 h. Each tested condition was analyzed in quadruplicate.
The luciferase analysis was performed with ONE-Glo™+ToxLuciferase Reporter and Cell Viability Assay kit (Promega).

[4] = test system: MMP13; experiment: Gene expression in rat articular chondrocytes under IL-1β stimulation, MMP13; assay type: cell-based; set-up: key to MMP13 gene expression, no effect: ne: no effect; conditions: 24 h
Method: as §1, §2, §3, §4, §5, §6, §7, §8, §9

[5] = test system: IL-1β; experiment: Gene expression in rat articular chondrocytes under IL-1β stimulation, IL-1β; assay type: cell-based; conditions: for IL-1β gene expression, percentage of inhibitory effect at the highest non toxic concentration: 6 h
Method: as §1, §2, §3, §4, §5, §6, §7, §8, §9

[6] = test system: MMP3; experiment: Gene expression in rat articular chondrocytes under IL-1β stimulation, MMP3; assay type: cell-based; set-up: key to MMP3 gene expression, no effect: ne: no effect; conditions: 24 h
Method: as §1, §2, §3, §4, §5, §6, §7, §8, §9

[7] = target: Fyn (Homo sapiens (Human), UniProt P06241); experiment: Z′-LYTE in vitro Fyn kinase activity assay; assay type: biochemical; conditions: ATP 50 μM; read-out: FYN KINASE INHIBITION IC50
Chain of Fyn (P06241 whole entry): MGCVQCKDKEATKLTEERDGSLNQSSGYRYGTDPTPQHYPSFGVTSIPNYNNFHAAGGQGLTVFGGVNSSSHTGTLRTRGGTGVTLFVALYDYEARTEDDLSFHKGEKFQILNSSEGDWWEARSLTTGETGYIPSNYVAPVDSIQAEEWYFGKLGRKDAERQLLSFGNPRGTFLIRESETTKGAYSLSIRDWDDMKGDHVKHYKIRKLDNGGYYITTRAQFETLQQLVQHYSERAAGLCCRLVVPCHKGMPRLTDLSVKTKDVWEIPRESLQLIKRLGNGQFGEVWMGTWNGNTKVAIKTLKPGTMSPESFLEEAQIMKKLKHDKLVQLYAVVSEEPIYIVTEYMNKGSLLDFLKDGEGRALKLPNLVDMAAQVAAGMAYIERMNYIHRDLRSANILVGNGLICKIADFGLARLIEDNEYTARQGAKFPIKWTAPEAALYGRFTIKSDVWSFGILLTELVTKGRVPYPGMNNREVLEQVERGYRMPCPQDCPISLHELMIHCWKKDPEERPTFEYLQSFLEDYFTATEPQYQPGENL
Method: The Fyn kinase inhibitory activity of representative examples of compounds of Formula (1) was evaluated by Z′-LYTE™ Kinase Assay Platform (Invitrogen). Compounds were evaluated towards active Fyn (full length active, molecular weight 87.1 kDa; Invitrogen). […] Samples representing the 0% inhibition (or total enzymatic activity) were in the presence of compound diluent (1% DMSO final in Reaction Buffer 50 mMHepes, 10 mM MgCl2, 1 mM EGTA, 0.01% Brij-35, pH 7.5). The kinase reaction was carried out in a total volume of 10 μl, for 60 minutes at 25° C. The 0% Phosphorylation (i.e. no ATP) and 100% Phosphorylation Assay Controls, included in each plate, allowed to calculate the percent phosphorylation achieved in the specific reaction well. Results are expressed as percentage of inhibition and the IC50 values were calculated by non-linear curve fitting using GraphPad™ Prism software (version 6 for Windows).

[8] = test system: IL-6; experiment: Gene expression in rat articular chondrocytes under IL-1β stimulation, IL-6; assay type: cell-based; conditions: for IL-6 gene expression, percentage of inhibitory effect at the highest non toxic concentration: 6 h
Method: as §1, §2, §3, §4, §5, §6, §7, §8, §9

[9] = test system: COX2; experiment: Gene expression in rat articular chondrocytes under IL-1β stimulation, COX2; assay type: cell-based; set-up: key to COX2 gene expression, no effect: ne: no effect
[10] = test system: bovine nasal septum cartilage; experiment: Inhibition of cartilage degradation (GAG release) induced by IL-1α in a bovine in vitro model; assay type: cell-based; set-up: key to Bovine cartilage degradation induced by IL-1α, no effect: ne: no effect
Method: Nasal septum cartilage was collected from an eight months-old male bovine in a local slaughterhouse.
Tissue was sprayed with ethanol 70% and immediately put in sterile PBS with Antibiotic-Antimycotic stabilized solution (PBS-AASS). It was cut in order to obtain small punches (diameter 2 mm, 1 mm-thick). washed with sterile PBS-AASS, the slices were transferred in a 96X well plate (one piece per well) in DMEM 10%+AASS. 48 h later the cartilage was stimulated in white DMEM+0.1% BSA+AASS with IL-1α […] in the absence or presence of the studied compounds.
The compounds concentration used in this analysis was chosen depending on the toxicity results obtained in rat primary chondrocytes at 48 h of incubation.
After 48 h stimulation, the culture medium was collected and stored at −80° C. The cartilage punches were digested with papain at 65° C. for 2 h in phosphate buffer (0.05M pH 6.5 with 2 mM N-acetil-L-cisteine and 2 mM EDTA).
The glycosaminoglycan (GAG) determination was done by a colorimetric assay with 1,9 dimethyl methylene blue (DMB).
Digested cartilage samples were diluted in PBS-BSA 1%. To 100 μl of diluted samples or standard we added 100 μl DMB 2X. After 5-20 min incubation the samples were read at 590 nm (Titertek Multiscan Plus).
The cartilage degradation induced by IL-1α was expressed as: GAG (medium)/total GAG (medium+cartilage)×100

[11] = test system: rat primary articular chondrocytes; experiment: Toxicity analysis (MTT) in rat primary chondrocytes; conditions: for First toxic concentration at 24 h: rat primary chondrocytes
Method: Purified chondrocytes were resuspended in DMEM glutaMAX 10% and plated in a 96X well plate for toxicity analysis and in a 6X well plate for gene expression analysis.
For toxicity analysis cells were then treated with the different compounds for 24 and 48 h. At the end of the incubation time, the medium was removed and was substituted with a mixture 10:1 of DMEM glutaMAX 10%—MTT (2 mg/ml) for 1 h at 37° C. in the cell incubator. After this incubation, the precipitated salt was dissolved with 100 μl of DMSO and the plate was read at 540 nm. The toxicity analysis were performed to decide the maximal non toxic concentration of each compound used in the gene expression assay.

[12] = Rattus norvegicus, Chondrocyte, 6 h incubation

Chain of VEGFR2 (P35968 20-1356): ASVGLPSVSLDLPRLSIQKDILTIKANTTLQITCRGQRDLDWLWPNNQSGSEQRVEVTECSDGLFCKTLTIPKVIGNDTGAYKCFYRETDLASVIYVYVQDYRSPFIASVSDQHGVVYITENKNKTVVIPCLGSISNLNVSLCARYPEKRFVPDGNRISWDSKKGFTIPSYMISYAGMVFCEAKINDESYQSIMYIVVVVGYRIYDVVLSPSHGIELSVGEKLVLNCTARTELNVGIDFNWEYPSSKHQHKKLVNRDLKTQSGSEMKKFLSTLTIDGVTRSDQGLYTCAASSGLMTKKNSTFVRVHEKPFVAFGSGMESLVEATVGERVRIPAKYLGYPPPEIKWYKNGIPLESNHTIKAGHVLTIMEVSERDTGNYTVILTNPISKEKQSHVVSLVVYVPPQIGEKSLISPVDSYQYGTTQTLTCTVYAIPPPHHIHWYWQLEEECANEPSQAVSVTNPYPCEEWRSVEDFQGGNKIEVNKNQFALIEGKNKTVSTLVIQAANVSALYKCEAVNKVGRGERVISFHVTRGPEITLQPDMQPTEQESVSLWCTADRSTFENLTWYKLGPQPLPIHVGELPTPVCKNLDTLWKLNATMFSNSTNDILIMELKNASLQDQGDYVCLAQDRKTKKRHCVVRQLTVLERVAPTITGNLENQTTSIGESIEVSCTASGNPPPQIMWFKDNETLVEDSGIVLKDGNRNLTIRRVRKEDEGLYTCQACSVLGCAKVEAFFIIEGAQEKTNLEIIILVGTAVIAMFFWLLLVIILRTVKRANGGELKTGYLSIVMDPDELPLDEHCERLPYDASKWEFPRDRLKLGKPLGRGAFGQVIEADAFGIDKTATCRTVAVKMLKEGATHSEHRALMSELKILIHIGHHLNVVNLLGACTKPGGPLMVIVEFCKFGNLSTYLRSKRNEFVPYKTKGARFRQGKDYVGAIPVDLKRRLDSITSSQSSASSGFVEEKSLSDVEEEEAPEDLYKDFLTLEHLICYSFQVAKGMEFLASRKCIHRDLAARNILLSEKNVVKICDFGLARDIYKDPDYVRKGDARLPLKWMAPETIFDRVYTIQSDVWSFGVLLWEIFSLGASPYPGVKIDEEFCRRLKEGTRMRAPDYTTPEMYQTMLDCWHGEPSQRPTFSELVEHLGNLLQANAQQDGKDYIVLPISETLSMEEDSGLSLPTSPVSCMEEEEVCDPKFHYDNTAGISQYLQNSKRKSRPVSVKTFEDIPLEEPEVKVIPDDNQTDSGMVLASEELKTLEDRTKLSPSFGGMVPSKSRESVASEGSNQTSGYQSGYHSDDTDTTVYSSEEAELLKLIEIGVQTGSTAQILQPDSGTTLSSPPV

## Cc1ccc(NC(=O)c2ccnc(C(C)(C)C#N)c2)cc1CCc1cc(Nc2cnccn2)[nH]n1 [Compound 2, 2-(2-cyanopropan-2-yl)-N-(4-methyl-3-(2-(5-(pyrazin-2-ylamino)-1H-pyrazol-3-yl)ethyl)phenyl)isonicotinamide]
[1]
  IC50: < 10 nM
[2]; 10 μM
  ADAMTS-5 gene expression, percentage of inhibitory effect at the highest non toxic concentration: 10 μM 94%
[3]
  IC50: 312 nM
[4]; 10 μM
  MMP13 gene expression, percentage of inhibitory effect at the highest non toxic concentration: 10 μM 99%
[5]; 10 μM
  IL-1β gene expression, percentage of inhibitory effect at the highest non toxic concentration: 10 μM 100%
[6]; 10 μM
  MMP3 gene expression, percentage of inhibitory effect at the highest non toxic concentration: 10 μM 92%
[7]
  IC50: 10 nM
[8]; 10 μM
  IL-6 gene expression, percentage of inhibitory effect at the highest non toxic concentration: 10 μM 100%
[9]; 10 μM, 24 h
  COX2 gene expression, percentage of inhibitory effect at the highest non toxic concentration: 10 μM 100%
[10]; Bos taurus, head says nM, cells print μM, 48 h stimulation, read-out: Inhibitory effect on bovine cartilage degradation induced by IL-1α, IC50
  IC50: 800 nM
[11]
  First toxic concentration at 48 h in rat primary chondrocytes: >10 µM
  First toxic concentration at 24 h: >10 µM

## CCNC1(c2ccc(C(=O)Nc3ccc(C)c(CCc4cc(Nc5cnccn5)[nH]n4)c3)cc2)CC1 [Compound 4, 4-(1-(ethylamino)cyclopropyl)-N-(4-methyl-3-(2-(5-(pyrazin-2-ylamino)-1H-pyrazol-3-yl)ethyl)phenyl)benzamide]
[1]
  IC50: < 10 nM
[2]
  IC50: 3000 nM
[3]
  IC50: 2230 nM
[4]; 10 μM
  MMP13 gene expression, percentage of inhibitory effect at the highest non toxic concentration: 10 μM 84%
[5]; [12]
  IC50: 1700 nM
[6]; 10 μM
  MMP3 gene expression, percentage of inhibitory effect at the highest non toxic concentration: 10 μM 55%
[7]
  IC50: 21 nM
[8]; 10 μM
  IL-6 gene expression, percentage of inhibitory effect at the highest non toxic concentration: 10 μM 93%
[9]; Rattus norvegicus, Chondrocyte, 24 h incubation
  IC50: 1400 nM
[10]
  Bovine cartilage degradation induced by IL-1α, no effect: ne
[11]
  First toxic concentration at 48 h in rat primary chondrocytes: 3 µM
  First toxic concentration at 24 h: >10 µM

## Cc1ccc(NC(=O)c2ccnc(C(C)(C)O)c2)cc1CCc1cc(Nc2cnccn2)[nH]n1 [Compound 5, 2-(2-hydroxypropan-2-yl)-N-(4-methyl-3-(2-(5-(pyrazin-2-ylamino)-1H-pyrazol-3-yl)ethyl)phenyl)isonicotinamide]
[1]
  IC50: < 10 nM
[2]
  IC50: 5500 nM
[3]
  IC50: 3260 nM
[4]; 10 μM
  MMP13 gene expression, percentage of inhibitory effect at the highest non toxic concentration: 10 μM 32%
[5]; 10 μM
  IL-1β gene expression, percentage of inhibitory effect at the highest non toxic concentration: 10 μM 84%
[6]
  MMP3 gene expression, no effect: ne
[7]
  IC50: 6 nM
[8]; 10 μM
  IL-6 gene expression, percentage of inhibitory effect at the highest non toxic concentration: 10 μM 89%
[9]; 10 μM, 24 h
  COX2 gene expression, percentage of inhibitory effect at the highest non toxic concentration: 10 μM 43%
[10]; Bos taurus, 3 μM, read-out: Bovine cartilage degradation induced by IL-1α, % inhibitory effect at max concentration
  inhibition at 3 µM: 79%
[11]
  First toxic concentration at 48 h in rat primary chondrocytes: 10 µM
  First toxic concentration at 24 h: >10 µM

## Cc1nc(C(=O)Nc2ccc(C)c(CCc3cc(Nc4cnccn4)[nH]n3)c2)c(C(F)(F)F)o1 [Compound 6, 2-methyl-N-(4-methyl-3-(2-(5-(pyrazin-2-ylamino)-1H-pyrazol-3-yl)ethyl)phenyl)-5-(trifluoromethyl)oxazole-4-carboxamide]
[1]
  IC50: < 10 nM
[2]; 1 μM
  ADAMTS-5 gene expression, percentage of inhibitory effect at the highest non toxic concentration: 1 μM 28%
[3]
  IC50: 2670 nM
[4]
  MMP13 gene expression, no effect: ne
[5]; 1 μM
  IL-1β gene expression, percentage of inhibitory effect at the highest non toxic concentration: 1 μM 50%
[6]
  MMP3 gene expression, no effect: ne
[7]
  IC50: 112 nM
[8]; [12]
  IC50: 640 nM
[9]; 24 h
  COX2 gene expression, no effect: ne
[10]
  Bovine cartilage degradation induced by IL-1α, no effect: ne
[11]
  First toxic concentration at 48 h in rat primary chondrocytes: 3 µM
  First toxic concentration at 24 h: 3 µM

## Cc1nccnc1Nc1cc(CCc2cc(NC(=O)c3cccc(C(F)(F)F)c3)ccc2F)n[nH]1 [Compound 15, N-(4-fluoro-3-(2-(5-((3-methylpyrazin-2-yl)amino)-1H-pyrazol-3-yl)ethyl)phenyl)-3-(trifluoromethyl)benzamide]
[1]
  IC50: < 10 nM
[2]; 3 μM
  ADAMTS-5 gene expression, percentage of inhibitory effect at the highest non toxic concentration: 3 μM 96%
[4]; 3 μM
  MMP13 gene expression, percentage of inhibitory effect at the highest non toxic concentration: 3 μM 99%
[5]; 3 μM
  IL-1β gene expression, percentage of inhibitory effect at the highest non toxic concentration: 3 μM 98%
[6]; 3 μM
  MMP3 gene expression, percentage of inhibitory effect at the highest non toxic concentration: 3 μM 90%
[7]
  IC50: 18 nM
[8]; 3 μM
  IL-6 gene expression, percentage of inhibitory effect at the highest non toxic concentration: 3 μM 100%
[9]; 3 μM, 24 h
  COX2 gene expression, percentage of inhibitory effect at the highest non toxic concentration: 3 μM 97%
[10]; Bos taurus, 1 μM, read-out: Bovine cartilage degradation induced by IL-1α, % inhibitory effect at max concentration
  inhibition at 1 µM: 96%
[10]; at max concentration
  Inhibitory effect on the GAG release: 95-100%
[11]
  First toxic concentration at 48 h in rat primary chondrocytes: 3 µM
  First toxic concentration at 24 h: 10 µM
